ChEMBL document CHEMBL5316282, “Small-Molecule Cyanamide Pan-TEAD·YAP1 Covalent Antagonists” (J Med Chem, 2023)
Active and inactive are the calls of the source. No cut-off for these calls is given here.

Experiments:
[1] = biological target: T1, Transcriptional enhancer factor TEF-1 (Homo sapiens, UniProt P28347); assay: Inhibition of TEAD1 (unknown origin) transfected in human HEK293 cells co-transfected with renilla plasmid assessed as inhibition of transcriptional activity incubated for 24 hrs by dual Glo-luciferase reporter assay; assay type: cell-based
[2] = biological target: T2, Transcriptional enhancer factor TEF-5 (Homo sapiens, UniProt Q99594); assay: Inhibition of TEAD3 (unknown origin) transfected in human HEK293 cells co-transfected with renilla plasmid assessed as inhibition of transcriptional activity incubated for 24 hrs by dual Glo-luciferase reporter assay; assay type: cell-based
[3] = biological target: T3, Transcriptional enhancer factor TEF-4 (Homo sapiens, UniProt Q15562); assay: Inhibition of TEAD2 (unknown origin) transfected in human HEK293 cells co-transfected with renilla plasmid assessed as inhibition of transcriptional activity incubated for 24 hrs by dual Glo-luciferase reporter assay; assay type: cell-based
[4] = Antiproliferative activity against human 90-8 cells assessed as maximum inhibition of cell viability incubated for 3 days by MTS assay relative to control; assay type: functional; settings: time 3 day
[5] = biological target: T3, Transcriptional enhancer factor TEF-4; assay: Inhibition of TEAD2 (unknown origin) transfected in human HEK293 cells co-transfected with renilla plasmid assessed as maximum inhibition of transcriptional activity at 0.1 to 10 uM incubated for 24 hrs by dual Glo-luciferase reporter assay relative to control; assay type: cell-based; settings: dose 0.1-10 µM
SAOS-2 [6] = assay: Antiproliferative activity against human SAOS-2 cells assessed as maximum inhibition of cell viability incubated for 3 days by MTS assay relative to control; assay type: functional; settings: time 3 day
MDA-MB-468 [7] = assay: Inhibition of TEAD in human MDA-MB-468 cells assessed as maximal inhibition of CTGF transcriptional level at 0.01 to 100 uM incubated for 24 hrs by qRT-PCR assay relative to control; assay type: cell-based; settings: dose 0.01-100 µM
[8] = biological target: T4, Transcriptional enhancer factor TEF-3 (Homo sapiens, UniProt Q15561); assay: Displacement of FAM- labeled YAP1 peptide (60 to 99 residues) from human TEAD4 (217 to 434 residues) expressed in Escherichia coli BL21 (DE3) cells at 100 uM incubated for 24 hrs followed by dialysis buffer for 24 hrs
[9] = biological target: T1, Transcriptional enhancer factor TEF-1; assay: Displacement of FAM- labeled YAP1 peptide (60 to 99 residues) from human TEAD1 (209 to 426 residues) expressed in Escherichia coli BL21 (DE3) cells incubated for 24 hrs by fluorescence polarization-based competitive binding assay; settings: read-out: IC50
[10] = biological target: T5, Transcriptional coactivator YAP1/Transcriptional enhancer factor TEF-1 (Homo sapiens) (UniProt P46937+P28347); assay: Inhibition of NanoLuc-tagged TEAD1 (unknown origin)-Halo-Tagged YAP1 (unknown origin) protein-protein interaction transfected in HEK293 cells using furimazine as substrate at 10 uM incubated for 2 to 24 hrs by NanoBRET binding assay; assay type: cell-based; settings: time 2-24 hrs, TDE = time-dependent effect
[11] = biological target: T4, Transcriptional enhancer factor TEF-3; assay: Inhibition of TEAD4 (unknown origin) transfected in human HEK293 cells co-transfected with renilla plasmid assessed as maximum inhibition of transcriptional activity at 0.1 to 10 uM incubated for 24 hrs by dual Glo-luciferase reporter assay relative to control; assay type: cell-based; settings: dose 0.1-10 µM
MDA-MB-468 [12] = assay: Antiproliferative activity against human MDA-MB-468 cells assessed as maximum inhibition of cell viability incubated for 3 days by MTS assay relative to control; assay type: functional, cell-based; settings: time 3.0 day
[13] = system: Transcriptional enhancer factor TEF-3 (Homo sapiens), Q15561 [C367S]; assay: Displacement of FAM- labeled YAP1 peptide (60 to 99 residues) from human TEAD4 (217 to 434 residues) C367S mutant expressed in Escherichia coli BL21 (DE3) cells at 0.2 to 100 uM incubated for 24 hrs by fluorescence polarization-based competitive binding assay; settings: dose 0.2-100 µM
[14] = biological target: T3, Transcriptional enhancer factor TEF-4; assay: Displacement of FAM- labeled YAP1 peptide (60 to 99 residues) from human TEAD2 (217 to 447 residues) expressed in Escherichia coli BL21 (DE3) cells assessed as maximum inhibition at 0.2 to 100 uM incubated for 24 hrs by fluorescence polarization-based competitive binding assay relative to control; settings: dose 0.2-100 µM
[15] = Antiproliferative activity against human SaOS-LM7 cells assessed as maximum inhibition of cell viability incubated for 3 days by MTS assay relative to control; assay type: functional; settings: time 3 day
[16] = biological target: T3, Transcriptional enhancer factor TEF-4; assay: Displacement of FAM- labeled YAP1 peptide (60 to 99 residues) from human TEAD2 (217 to 447 residues) expressed in Escherichia coli BL21 (DE3) cells incubated for 24 hrs by fluorescence polarization-based competitive binding assay
MDA-MB-468 [17] = assay: Antiproliferative activity against human MDA-MB-468 cells assessed as reduction in cell viability incubated for 3 days by MTS assay; assay type: functional, cell-based
[18] = biological target: T6, YAP1-TEAD4 (Homo sapiens) (UniProt P46937+Q15561); assay: Inhibition of NanoLuc-tagged TEAD4 (unknown origin)-Halo-Tagged YAP1 (unknown origin) protein-protein interaction transfected in HEK293 cells using furimazine as substrate at 1.1 to 30 uM incubated for 24 hrs by NanoBRET binding assay; assay type: cell-based; settings: dose 1.1-30 µM
[19] = Inhibition of TEAD in human MDA-MB-468 cells assessed as inhibition of CTGF transcriptional level incubated for 24 hrs by qRT-PCR assay; assay type: cell-based
[20] = biological target: T6, YAP1-TEAD4 (Homo sapiens); assay: Inhibition of myc-tagged TEAD4 (unknown origin)-Flag-Tagged YAP1 (unknown origin) protein-protein interaction transfected in HEK293 cells using furimazine as substrate at 1.1 to 11 uM incubated for 24 hrs by pull-down coimmunoprecipitation assay; assay type: cell-based; settings: dose 1.1-11 µM
[21] = biological target: T4, Transcriptional enhancer factor TEF-3; assay: Displacement of FAM- labeled YAP1 peptide (60 to 99 residues) from human TEAD4 (217 to 434 residues) expressed in Escherichia coli BL21 (DE3) cells incubated for 24 hrs by fluorescence polarization-based competitive binding assay; settings: read-out: IC50
[22] = biological target: T4, Transcriptional enhancer factor TEF-3; assay: Inhibition of TEAD4 (unknown origin) transfected in human HEK293 cells co-transfected with renilla plasmid assessed as inhibition of transcriptional activity incubated for 24 hrs by dual Glo-luciferase reporter assay; assay type: cell-based
[23] = biological target: T2, Transcriptional enhancer factor TEF-5; assay: Displacement of FAM- labeled YAP1 peptide (60 to 99 residues) from human TEAD3 (210 to 427 residues) expressed in Escherichia coli BL21 (DE3) cells incubated for 24 hrs by fluorescence polarization-based competitive binding assay
[24] = Antiproliferative activity against human 90-8 cells assessed as reduction in cell viability incubated for 3 days by MTS assay; assay type: functional, cell-based; settings: 90-8, 72 h
Huh-7 [25] = assay: Antiproliferative activity against human Huh-7 cells assessed as reduction in cell viability incubated for 3 days by MTS assay; assay type: functional, cell-based; settings: Huh-7, 72 h
[26] = biological target: T6, YAP1-TEAD4 (Homo sapiens); assay: Inhibition of NanoLuc-tagged TEAD4 (unknown origin)-Halo-Tagged YAP1 (unknown origin) protein-protein interaction transfected in HEK293 cells using furimazine as substrate at 10 uM incubated for 2 to 24 hrs by NanoBRET binding assay; assay type: cell-based; settings: time 2-24 hrs, TDE = time-dependent effect
[27] = biological target: T1, Transcriptional enhancer factor TEF-1; assay: Inhibition of TEAD1 (unknown origin) transfected in human HEK293 cells co-transfected with renilla plasmid assessed as maximum inhibition of transcriptional activity at 0.1 to 10 uM incubated for 24 hrs by dual Glo-luciferase reporter assay relative to control; assay type: cell-based; settings: dose 0.1-10 µM
Huh-7 [28] = assay: Antiproliferative activity against human Huh-7 cells assessed as maximum inhibition of cell viability incubated for 3 days by MTS assay relative to control; assay type: functional; settings: time 3 day
[29] = biological target: T3, Transcriptional enhancer factor TEF-4; assay: Inhibition of TEAD2 (unknown origin) transfected in human HEK293 cells co-transfected with renilla plasmid assessed as maximum inhibition of transcriptional activity at 10 uM incubated for 24 hrs by dual Glo-luciferase reporter assay relative to control; assay type: cell-based
[30] = Antiproliferative activity against human ST88-14 cells assessed as maximum inhibition of cell viability incubated for 3 days by MTS assay relative to control; assay type: functional; settings: time 3 day
[31] = biological target: T5, Transcriptional coactivator YAP1/Transcriptional enhancer factor TEF-1 (Homo sapiens); assay: Inhibition of NanoLuc-tagged TEAD1 (unknown origin)-Halo-Tagged YAP1 (unknown origin) protein-protein interaction transfected in HEK293 cells using furimazine as substrate at 1.1 to 30 uM incubated for 24 hrs by NanoBRET binding assay; assay type: cell-based; settings: dose 1.1-30 µM
[32] = Antiproliferative activity against human SaOS-LM7 cells assessed as reduction in cell viability incubated for 3 days by MTS assay; assay type: functional, cell-based; settings: SaOS-LM7, 72 h
SAOS-2 [33] = assay: Antiproliferative activity against human SAOS-2 cells assessed as reduction in cell viability incubated for 3 days by MTS assay; assay type: functional, cell-based; settings: SAOS-2, 72 h
[34] = biological target: T1, Transcriptional enhancer factor TEF-1; assay: Inhibition of TEAD1 (unknown origin) transfected in human HEK293 cells co-transfected with renilla plasmid assessed as maximum inhibition of transcriptional activity at 10 uM incubated for 24 hrs by dual Glo-luciferase reporter assay relative to control; assay type: cell-based
[35] = biological target: T6, YAP1-TEAD4 (Homo sapiens); assay: Inhibition of NanoLuc-tagged TEAD4 (unknown origin)-Halo-Tagged YAP1 (unknown origin) protein-protein interaction transfected in HEK293 cells using furimazine as substrate at 0.9 to 30 uM incubated for 24 hrs by NanoBRET binding assay; assay type: cell-based; settings: dose 0.9-30 µM
[36] = Antiproliferative activity against human ST88-14 cells assessed as reduction in cell viability incubated for 3 days by MTS assay; assay type: functional, cell-based; settings: ST88-14, 72 h
[37] = biological target: T4, Transcriptional enhancer factor TEF-3; assay: Inhibition of TEAD4 (unknown origin) transfected in human HEK293 cells co-transfected with renilla plasmid assessed as maximum inhibition of transcriptional activity at 0.01 to 100 uM incubated for 24 hrs by dual Glo-luciferase reporter assay relative to control; assay type: cell-based; settings: dose 0.01-100 µM

T3 sequence (Q15562 whole entry): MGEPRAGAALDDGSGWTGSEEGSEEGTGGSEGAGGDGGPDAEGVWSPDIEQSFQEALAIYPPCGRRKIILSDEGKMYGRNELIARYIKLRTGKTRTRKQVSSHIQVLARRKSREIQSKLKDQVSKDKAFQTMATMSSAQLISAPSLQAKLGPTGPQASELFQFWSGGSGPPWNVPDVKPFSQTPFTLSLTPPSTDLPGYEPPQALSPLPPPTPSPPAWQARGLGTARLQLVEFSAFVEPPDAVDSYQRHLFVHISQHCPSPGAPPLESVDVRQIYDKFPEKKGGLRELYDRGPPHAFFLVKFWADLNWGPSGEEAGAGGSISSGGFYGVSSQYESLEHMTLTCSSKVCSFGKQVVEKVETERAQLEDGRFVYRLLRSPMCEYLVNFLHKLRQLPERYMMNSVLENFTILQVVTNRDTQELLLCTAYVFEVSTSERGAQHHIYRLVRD
T1 sequence (P28347 whole entry): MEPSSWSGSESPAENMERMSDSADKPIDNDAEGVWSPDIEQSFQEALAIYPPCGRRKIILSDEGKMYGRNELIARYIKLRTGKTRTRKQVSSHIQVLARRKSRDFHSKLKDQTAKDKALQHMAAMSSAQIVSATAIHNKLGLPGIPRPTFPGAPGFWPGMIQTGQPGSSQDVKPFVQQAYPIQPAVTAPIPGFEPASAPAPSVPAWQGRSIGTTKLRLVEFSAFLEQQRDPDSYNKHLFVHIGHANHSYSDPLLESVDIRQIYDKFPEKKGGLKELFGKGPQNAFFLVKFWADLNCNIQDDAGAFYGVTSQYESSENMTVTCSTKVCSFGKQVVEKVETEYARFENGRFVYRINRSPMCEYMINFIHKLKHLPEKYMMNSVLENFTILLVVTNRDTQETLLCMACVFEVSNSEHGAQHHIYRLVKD
T2 sequence (Q99594 whole entry): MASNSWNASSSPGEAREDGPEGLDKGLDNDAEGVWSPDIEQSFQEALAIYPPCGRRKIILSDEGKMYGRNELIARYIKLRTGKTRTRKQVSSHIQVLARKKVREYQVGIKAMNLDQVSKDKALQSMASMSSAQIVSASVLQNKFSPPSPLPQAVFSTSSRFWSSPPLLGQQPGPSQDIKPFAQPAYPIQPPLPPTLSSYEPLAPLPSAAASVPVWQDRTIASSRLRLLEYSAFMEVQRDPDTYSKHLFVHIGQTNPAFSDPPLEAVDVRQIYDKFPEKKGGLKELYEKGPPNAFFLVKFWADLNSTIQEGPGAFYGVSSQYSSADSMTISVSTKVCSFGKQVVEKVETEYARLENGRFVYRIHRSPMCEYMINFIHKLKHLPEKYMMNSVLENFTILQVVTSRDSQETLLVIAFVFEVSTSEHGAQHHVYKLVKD
T4 sequence (Q15561 whole entry, the tested form may be a part): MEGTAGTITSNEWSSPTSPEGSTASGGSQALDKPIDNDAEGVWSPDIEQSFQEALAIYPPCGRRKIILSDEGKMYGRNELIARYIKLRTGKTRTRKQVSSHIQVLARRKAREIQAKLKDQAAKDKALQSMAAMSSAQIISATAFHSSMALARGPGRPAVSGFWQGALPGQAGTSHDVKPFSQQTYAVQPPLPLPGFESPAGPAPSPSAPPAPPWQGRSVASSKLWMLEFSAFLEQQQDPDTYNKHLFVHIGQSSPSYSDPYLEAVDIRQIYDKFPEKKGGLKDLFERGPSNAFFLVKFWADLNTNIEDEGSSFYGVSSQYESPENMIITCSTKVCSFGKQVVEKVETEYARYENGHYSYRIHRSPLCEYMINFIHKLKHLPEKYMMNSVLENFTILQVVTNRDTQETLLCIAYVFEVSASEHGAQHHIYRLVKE
T5 sequence (P28347 whole entry, looked up): as the sequence (P28347 whole entry) above
T5 sequence (P46937 whole entry, looked up): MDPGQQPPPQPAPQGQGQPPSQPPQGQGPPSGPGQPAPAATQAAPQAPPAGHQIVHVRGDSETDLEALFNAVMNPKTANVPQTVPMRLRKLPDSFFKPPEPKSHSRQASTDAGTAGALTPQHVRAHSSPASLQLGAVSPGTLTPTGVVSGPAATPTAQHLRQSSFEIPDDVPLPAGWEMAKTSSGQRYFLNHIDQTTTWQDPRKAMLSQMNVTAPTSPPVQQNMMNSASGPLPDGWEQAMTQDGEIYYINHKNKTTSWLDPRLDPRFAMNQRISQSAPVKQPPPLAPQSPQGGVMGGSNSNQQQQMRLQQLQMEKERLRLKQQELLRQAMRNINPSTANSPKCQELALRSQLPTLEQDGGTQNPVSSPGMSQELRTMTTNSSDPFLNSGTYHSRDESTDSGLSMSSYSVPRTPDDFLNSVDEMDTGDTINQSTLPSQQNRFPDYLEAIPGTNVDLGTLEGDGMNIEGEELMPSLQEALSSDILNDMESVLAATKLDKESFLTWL
Chain of Transcriptional enhancer factor TEF-3 (Homo sapiens), Q15561 [C367S] (Q15561 whole entry C367S, the tested form may be a part): as the sequence (Q15561 whole entry, the tested form may be a part) above, with C367S counted along it

## N#CN1Cc2cccc(Nc3cccc(C(F)(F)F)c3)c2C1
[1]
  IC50: 5100 nM
[2]
  IC50: 2200 nM
[3]
  IC50: 2700 nM
[4]
  Imax: 51.4%
[5]
  Imax: 42.7%
SAOS-2 [6]
  Imax: 53.4%
MDA-MB-468 [7]
  Imax: 65.7%
[8]
  inhibition: Active
[9]
  IC50: 900 nM
[10]
  inhibition: Tde
[11]
  Imax: 61.8%
MDA-MB-468 [12]
  Imax: inactive
[13]
  inhibition: inactive
[14]
  Imax: 34%
[15]
  Imax: 60.7%
[16]
  IC50: 1200 nM
MDA-MB-468 [17]
  IC50: Not Active
[18]
  inhibition: Active
[19]; Homo sapiens, MDA-MB-468, 24 h, read-out: IC50
  IC50: 600 nM
[20]
  inhibition: Dose-Dependent Effect
[21]
  IC50: 1100 nM
[22]; read-out: IC50
  IC50: 5000 nM
[23]
  IC50: Not Active
[24]
  IC50: 3500 nM
Huh-7 [25]
  IC50: 100 nM
[26]
  inhibition: Tde
[27]
  Imax: 51.2%
Huh-7 [28]
  Imax: 48.3%
[29]
  inhibition: 40%
[30]
  Imax: 31%
[31]
  inhibition: Active
[32]
  IC50: 200 nM
SAOS-2 [33]
  IC50: 100 nM
[34]
  inhibition: 40%
[35]
  inhibition: Active
[36]
  IC50: 30 nM
[37]
  Imax: 46.6%

## N#CN1CC2CCCC(Nc3ccc(C(F)(F)F)cc3)C2C1 (stereo not given)
MDA-MB-468 [7]
  Imax: inactive
[9]
  IC50: 1500 nM
[14]
  Imax: 39%
[16]
  IC50: 16100 nM
[19]; mda-mb-468
  IC50: Not Active
[21]
  IC50: 20100 nM
[22]; hek293
  IC50: Not Active
[23]
  IC50: Not Active
